From ChEMBL document CHEMBL4673280, “Discovery and SAR studies of 2-alkyl-3-phenyl-2,4,5,6,7,8-hexahydropyrazolo[3,4-d]azepines as 5-HT inhibitors leading to the identification of a clinical candidate” (Bioorg Med Chem Lett, 2021)
Several values for one entry are separate records, joined by “and”; a condition that tells them apart may be missing. Equal entries are not always repeated. Activity calls are given as the source filed them. The calls are words filed in the database; no cut-off is given here.

Columns and labels:
[1] = Tmax in rat at 3 mg/kg, po; format: ADME, organism-based; conditions: in vivo
[2] = Half life in rat plasma at 10 mg/kg, po; format: ADME, organism-based
[3] = Metabolic stability in rat liver microsomes assessed as half life; format: ADME, Microsome
[4] = Half life in non-human primates at 5 mg/kg, po; format: ADME, organism-based; conditions: in vivo
[5] = Clearance in rat brain at 10 mg/kg, po; format: ADME, organism-based; conditions: in vivo
[6] = Clearance in rat at 1 mg/kg, iv; format: ADME, organism-based; conditions: in vivo
[7] = In vivo antagonist activity at 5-HT7 receptor in po dosed rat assessed as inhibition of 5-CT induced hypothermia compound administered 20 mins prior to 5-CT injection and measured after 1 hr; format: functional; conditions: 1.333 h, time 80 min
[8] = Efflux ratio of apparent permeability in human Caco2 cells; format: ADME, cell-based; conditions: Caco-2
[9] = Tmax in rat brain at 10 mg/kg, po; format: ADME, organism-based
[10] = biological target: 5-hydroxytryptamine receptor 2B (Homo sapiens, UniProt P41595); experiment: Displacement of [3H]-ketanserin from human 5-HT2B receptor by competitive radioligand binding assay
5-hydroxytryptamine receptor 2B, sequence (P41595 whole entry): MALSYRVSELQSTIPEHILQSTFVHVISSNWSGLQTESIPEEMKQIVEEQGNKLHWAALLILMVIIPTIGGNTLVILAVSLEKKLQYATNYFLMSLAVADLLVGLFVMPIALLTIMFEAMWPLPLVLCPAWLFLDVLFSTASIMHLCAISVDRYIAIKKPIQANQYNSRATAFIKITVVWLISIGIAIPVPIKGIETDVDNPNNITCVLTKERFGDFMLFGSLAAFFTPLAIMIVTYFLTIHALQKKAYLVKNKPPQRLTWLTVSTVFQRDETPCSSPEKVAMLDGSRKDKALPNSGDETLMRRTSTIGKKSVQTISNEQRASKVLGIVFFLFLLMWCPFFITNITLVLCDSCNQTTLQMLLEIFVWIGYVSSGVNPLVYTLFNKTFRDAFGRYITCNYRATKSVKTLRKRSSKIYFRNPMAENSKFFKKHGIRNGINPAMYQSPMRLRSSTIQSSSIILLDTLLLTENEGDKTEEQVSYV

[11] = Cmax in rat at 3 mg/kg, po; format: ADME, organism-based; parameters: route oral, dose 3 mg/kg; conditions: in vivo
[12] = Ex vivo receptor occupancy at 5-HT2A receptor in orally dosed rat frontal cortex measured after 1 hr; format: functional; conditions: po
[13] = biological target: T1, 5-hydroxytryptamine receptor 2A (Homo sapiens, UniProt P28223); experiment: Antagonist activity at 5-HT2A receptor (unknown origin) by calcium mobilization assay; format: functional; conditions: filed as antagonist
T1 sequence (P28223 whole entry): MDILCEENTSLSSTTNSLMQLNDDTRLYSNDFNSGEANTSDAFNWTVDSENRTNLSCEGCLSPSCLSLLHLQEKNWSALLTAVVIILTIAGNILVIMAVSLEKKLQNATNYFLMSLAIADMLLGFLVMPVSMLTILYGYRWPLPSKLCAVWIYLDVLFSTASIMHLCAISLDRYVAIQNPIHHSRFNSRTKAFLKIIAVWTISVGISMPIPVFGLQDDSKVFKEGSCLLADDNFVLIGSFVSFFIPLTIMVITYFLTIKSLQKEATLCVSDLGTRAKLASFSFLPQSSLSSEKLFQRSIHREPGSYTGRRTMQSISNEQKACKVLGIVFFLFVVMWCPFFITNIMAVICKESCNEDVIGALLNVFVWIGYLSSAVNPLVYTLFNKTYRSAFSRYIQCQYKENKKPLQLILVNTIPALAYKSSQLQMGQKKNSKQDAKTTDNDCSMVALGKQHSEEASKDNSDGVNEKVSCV

[14] = biological target: T2, 5-hydroxytryptamine receptor 2C (Homo sapiens, UniProt P28335); experiment: Displacement of [3H]-ketanserin from human 5-HT2C receptor by competitive radioligand binding assay
T2 sequence (P28335 whole entry): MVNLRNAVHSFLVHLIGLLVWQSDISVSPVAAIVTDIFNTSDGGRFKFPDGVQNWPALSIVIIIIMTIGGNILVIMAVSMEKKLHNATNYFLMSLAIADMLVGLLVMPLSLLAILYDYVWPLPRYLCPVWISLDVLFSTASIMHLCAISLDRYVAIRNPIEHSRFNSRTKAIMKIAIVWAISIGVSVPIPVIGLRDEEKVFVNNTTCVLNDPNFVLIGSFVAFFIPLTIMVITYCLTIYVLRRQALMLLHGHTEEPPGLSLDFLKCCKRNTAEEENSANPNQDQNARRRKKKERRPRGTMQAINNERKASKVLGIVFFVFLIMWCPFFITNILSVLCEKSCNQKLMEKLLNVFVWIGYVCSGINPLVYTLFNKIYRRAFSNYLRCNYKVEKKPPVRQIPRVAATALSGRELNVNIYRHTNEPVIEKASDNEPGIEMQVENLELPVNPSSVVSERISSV

[15] = Cmax in non-human primates at 5 mg/kg, po; format: ADME, organism-based; parameters: route oral, dose 5 mg/kg; conditions: in vivo
[16] = Half life in rat at 3 mg/kg, sc; format: ADME, organism-based; conditions: in vivo
[17] = Tmax in rat at 3 mg/kg, sc; format: ADME, organism-based; conditions: in vivo
[18] = Metabolic stability in human liver microsomes assessed as half life; format: ADME, Microsome
[19] = Oral bioavailability in monkey; format: ADME, organism-based, Macaca mulatta; conditions: rhesus monkey, in vivo
[20] = AUC in rat at 3 mg/kg, sc; format: ADME, organism-based; parameters: dose 3 mg/kg; conditions: in vivo
[21] = biological target: 5-hydroxytryptamine receptor 7 (Homo sapiens, UniProt P34969); experiment: Inverse agonist activity at 5-HT7 receptor (unknown origin) by cAMP functional assay
5-hydroxytryptamine receptor 7 (Homo sapiens, UniProt P34969), sequence (P34969 whole entry): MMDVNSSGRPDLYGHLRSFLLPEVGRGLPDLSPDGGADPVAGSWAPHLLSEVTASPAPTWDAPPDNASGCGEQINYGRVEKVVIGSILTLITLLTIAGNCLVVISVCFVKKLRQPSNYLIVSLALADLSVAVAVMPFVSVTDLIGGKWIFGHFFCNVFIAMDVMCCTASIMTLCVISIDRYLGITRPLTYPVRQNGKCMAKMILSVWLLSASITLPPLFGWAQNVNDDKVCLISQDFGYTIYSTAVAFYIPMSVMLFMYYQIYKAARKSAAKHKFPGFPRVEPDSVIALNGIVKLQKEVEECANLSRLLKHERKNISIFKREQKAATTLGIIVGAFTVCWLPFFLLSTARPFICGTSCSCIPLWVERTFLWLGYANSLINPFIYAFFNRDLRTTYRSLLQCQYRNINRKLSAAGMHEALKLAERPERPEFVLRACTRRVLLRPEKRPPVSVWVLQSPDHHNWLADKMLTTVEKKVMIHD

[22] = Clearance in rat at 3 mg/kg, po; format: ADME, organism-based; conditions: in vivo
[23] = AUC in rat brain at 10 mg/kg, po; format: ADME, organism-based; parameters: dose 10 mg/kg
[24] = Oral bioavailability in mouse; format: ADME, organism-based; conditions: in vivo
[25] = Oral bioavailability in dog; format: ADME, organism-based, Canis lupus familiaris; conditions: in vivo
[26] = Clearance in rat plasma at 10 mg/kg, po; format: ADME, organism-based
[27] = Cmax in rat plasma at 10 mg/kg, po; format: ADME, organism-based; parameters: route oral, dose 10 mg/kg
[28] = Half life in rat at 1 mg/kg, iv; format: ADME, organism-based; conditions: in vivo
[29] = Toxicity in rat assessed as effect on body temperature at 0.03 to 1 mg/kg, po; format: organism-based; conditions: in vivo, dose 0.03-1 mg/kg
[30] = Half life in rat brain at 10 mg/kg, po; format: ADME, organism-based
[31] = AUC in rat plasma at 10 mg/kg, po; format: ADME, organism-based; parameters: dose 10 mg/kg
[32] = Cmax in rat at 3 mg/kg, sc; format: ADME, organism-based; parameters: route subcutaneous, dose 3 mg/kg; conditions: in vivo
[33] = Cmax in dog at 10 mg/kg, po; format: ADME, organism-based, Canis lupus familiaris; parameters: route oral, dose 10 mg/kg; conditions: in vivo
[34] = AUC in rat at 1 mg/kg, iv; format: ADME, organism-based; parameters: dose 1 mg/kg; conditions: in vivo
[35] = biological target: 5-hydroxytryptamine receptor 7 (Rattus norvegicus, UniProt P32305); experiment: Displacement of [3H]-CT from rat 5-HT7 receptor expressed in HEK293 cells by competitive radioligand binding assay; format: cell-based
5-hydroxytryptamine receptor 7 (Rattus norvegicus, UniProt P32305), sequence (P32305 whole entry): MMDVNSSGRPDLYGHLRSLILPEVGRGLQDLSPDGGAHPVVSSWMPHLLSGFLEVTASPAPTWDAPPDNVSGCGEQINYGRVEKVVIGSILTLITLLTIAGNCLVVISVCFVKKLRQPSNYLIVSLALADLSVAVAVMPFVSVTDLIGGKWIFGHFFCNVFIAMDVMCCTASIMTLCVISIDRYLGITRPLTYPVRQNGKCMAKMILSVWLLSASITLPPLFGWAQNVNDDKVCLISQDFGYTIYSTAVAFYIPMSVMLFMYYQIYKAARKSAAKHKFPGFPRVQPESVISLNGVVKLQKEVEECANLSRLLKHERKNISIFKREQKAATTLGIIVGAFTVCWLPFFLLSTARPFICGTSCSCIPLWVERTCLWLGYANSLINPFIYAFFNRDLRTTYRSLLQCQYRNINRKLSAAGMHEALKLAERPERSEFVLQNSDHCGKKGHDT

[36] = Ratio of drug level in rat brain to plasma at 10 mg/kg, po; format: ADME, organism-based; conditions: brain and plasma, read-out: BPR
[37] = Ratio of plasma concentration that yields to require for inhibition of alpha1 adrenergic receptor-mediated mydriasis in phenylephrine-stimulated rat to MED for inhibition of 5-HT7 receptor mediated hypothermia in po dosed 5-CT-stimulated rat; format: organism-based
[38] = Protein binding in rat plasma assessed as unbound fraction; format: ADME, cell-free
Rattus norvegicus = experiment: In vivo antagonist activity at 5-HT7 receptor in rat assessed as maximal inhibition of 5-CT induced hypothermia at 0.3 mg/kg, po compound administered 20 mins prior to 5-CT injection; format: functional, organism-based
[39] = biological target: T1, 5-hydroxytryptamine receptor 2A; experiment: Displacement of [3H]-ketanserin from human 5-HT2A receptor by competitive radioligand binding assay
[40] = Tmax in non-human primates at 5 mg/kg, po; format: ADME, organism-based; conditions: in vivo
[41] = Half life in dog at 10 mg/kg, po; format: ADME, organism-based, Canis lupus familiaris; conditions: in vivo
[42] = Half life in rat at 3 mg/kg, po; format: ADME, organism-based; conditions: in vivo
[43] = Oral bioavailability in rat; format: ADME, organism-based; conditions: in vivo
[44] = AUC in rat at 3 mg/kg, po; format: ADME, organism-based; parameters: dose 3 mg/kg; conditions: in vivo
[45] = In vivo antagonist activity at 5-HT2A receptor in po dosed mouse assessed as inhibition of DOI-induced head twitch measured after 60 mins; format: functional; conditions: 1 h
[46] = Protein binding in human plasma assessed as unbound fraction; format: ADME, cell-free
[47] = Cmax in rat brain at 10 mg/kg, po; format: ADME, organism-based; parameters: route oral, dose 10 mg/kg
[48] = Tmax in dog at 10 mg/kg, po; format: ADME, organism-based, Canis lupus familiaris; conditions: in vivo
[49] = Clearance in rat at 3 mg/kg, sc; format: ADME, organism-based; conditions: in vivo
Cytochrome P450 = experiment: Inhibition of CYP450 (unknown origin) up to 10 uM; format: ADME, protein assay; conditions: human
[50] = Plasma concentration that yields to require for maximal inhibition of 5-HT7 receptor mediated hypothermia in 5-CT-stimulated rat at 0.3 mg/kg, po compound administered 20 mins prior to 5-CT injection; format: organism-based
[51] = Tmax in rat plasma at 10 mg/kg, po; format: ADME, organism-based

Question: What does the source list for `CC(C)n1nc2c(c1-c1ccc(F)cc1)CCNCC2`?
Answer: Tmax [1]: 1.7 h; half-life [2]: 6 h; half-life [3]: > 1 h; half-life [4]: 11.4 h; CL [5]: 0.1 L/h; clearance [6]: 6.67 mL/min; ED50 [7]: 0.05 mg/kg; efflux ratio [8]: 1.3; Tmax [9]: 1 h; Ki [10]: 19 nM; Cmax [11]: 190 ng/mL and 700 nM; ED50 [12]: 0.8 mg/kg; pKb [13]: 8.1; Ki [14]: 49 nM; Cmax [15]: 300 ng/mL; half-life [16]: 3.9 h; Tmax [17]: 0.75 h; half-life [18]: > 1 h; bioavailability [19]: 72%; AUC [20]: 7.7 µM·h; IC50 [21]: 100 nM; CL/F [22]: 6.67 mL/min; AUC [23]: 89 µM·h; bioavailability [24]: 98%; bioavailability [25]: 98%; CL/F [26]: 3.33 mL/min; Cmax [27]: 1080 ng/mL and 3.9 µM; half-life [28]: 3.4 h; Activity [29]: Non-Toxic; half-life [30]: 6.3 h; AUC [31]: 57 µM·h; Cmax [32]: 260 ng/mL and 940 nM; Cmax [33]: 2000 ng/mL; AUC [34]: 2.8 µM·h; Ki [35]: 8 nM; Kp [36]: > 1; selectivity ratio [37]: 30; fraction unbound [38]: 0.2; inhibition (Rattus norvegicus): Active; Ki [39]: 8 nM; Tmax [40]: 3 h; half-life [41]: 10.6 h; half-life [42]: 4.3 h; bioavailability [43]: 100%; AUC [44]: 9.2 µM·h; ED50 [45]: 0.3 mg/kg; fraction unbound [46]: 0.3; Cmax [47]: 1680 ng/mL and 6.1 µM; Tmax [48]: 0.5 h; CL/F [49]: 6.67 mL/min; inhibition (INH) (Cytochrome P450): Not Active; concentration at 20 min [50]: 27 ng/mL; Tmax [51]: 1 h
